Reference: patent US20250177383A1, “DI-CYCLOPROPYL BASED IL-17A MODULATORS AND USES THEREOF” (DICE ALPHA, INC., priority 2022, published 2025)

Tests used:
IL-17A/F = target: T1, IL-17A/F (Homo sapiens, UniProt Q16552+Q96PD4); experiment: IL-17A/F HEK-Blue Cell Assay; assay type: cell-based; settings: HEK-Blue IL-17 reporter cells, IL-17A/F stimulation, 20 hours, SEAP readout; for IC50: read-out: IL17AF HEK Blue pIC50 (converted)
T1 sequence (Q16552 24-155): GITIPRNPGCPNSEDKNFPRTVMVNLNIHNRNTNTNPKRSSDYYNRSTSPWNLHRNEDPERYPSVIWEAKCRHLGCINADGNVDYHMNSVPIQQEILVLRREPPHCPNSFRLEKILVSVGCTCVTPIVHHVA
T1 sequence (Q96PD4 31-163): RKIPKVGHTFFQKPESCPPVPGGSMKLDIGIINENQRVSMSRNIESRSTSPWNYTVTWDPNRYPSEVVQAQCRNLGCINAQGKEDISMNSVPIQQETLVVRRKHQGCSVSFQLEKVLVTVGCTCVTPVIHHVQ
Description: The HEK-Blue IL-17 reporter cell line (Fisher #NC1408637) was used for cell-based IL-17A/F inhibition assays. Cells were grown and prepared for assays according to the manufacturer's instructions. This cell line consists of HEK 293 cells that were designed to expressed IL-17RA, IL-17R^C, and the ActI adapter molecule, the combination of which, when stimulated by IL-17A/A activates a NFκB promoter and drives expression of a recombinant Secreted Alkaline Phosphatase (SEAP) geneprotein. Media from the cells is then added to a development reagent (Quanti-Blue Substrate, Fisher #NC9711613), and read at A630.
Compounds were titrated in DMSO and added to the cells immediately before adding IL-17A/A (Custom from R&D systems, untagged IL-17A/F+BSA as a carrier protein). The cells, compound, and IL-17A/A were then incubated for 20 hours before media was removed for SEAP analysis. The resulting inhibition curve was then analyzed using a Dotmatics screening protocol, and IC50 values were determined using a 4-parameter nonlinear fit. DMSO was added to a universal final concentration of 0.1% to optimize background.

IL-17A/A = target: T2, IL-17A/A (Homo sapiens, UniProt Q16552); experiment: IL-17A/A HEK-Blue Cell Assay; assay type: cell-based; settings: HEK-Blue IL-17 reporter cells, IL-17A/A stimulation, 20 hours, SEAP readout; read-out: IL17 AA HEK-5 pIC50 (converted)
T2 sequence (Q16552 24-155): T1 sequence (Q16552 24-155)
Method in brief: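 Cells co-expressing IL-17RA, IL-17RC and Act1 received titrated compound, top final 10 uM in 0.1% DMSO, immediately before IL-17A/A stimulation.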

IL17AF HEK Blue pIC50 (IL-17A/F)	IC50 (IL-17A/A) [nM]	IC50 (IL-17A/F) [nM]	Structure (SMILES)
C (7>C≥5)	< 10		CCC(OC)C(=O)N[C@@H](C(=O)N1CCN(C)[C@H](C)C1)[C@@H](C)c1ccc(NC(=O)[C@@H](NC(=O)C2(F)CC2)C(C2CC2)C2CC2)c(F)c1 (single isomer, unassigned) [Compound 337]
	< 10	10 to 100	CCC(OC)C(=O)N[C@@H](C(=O)N1CCN(C)[C@H](C)C1)[C@@H](C)c1ccc(NC(=O)[C@@H](NC(=O)c2ccnn2CC)C(C2CC2)C2CC2)c(F)c1 (single isomer, unassigned) [Compound 338]
	10 to 100	100 to 10000	CCC(OC)C(=O)N[C@@H](C(=O)N1CCN(C)CC1)[C@@H](C)c1ccc(NC(=O)[C@@H](NC(=O)c2ccnn2CC)C(C2CC2)C2CC2)c(F)c1 (single isomer, unassigned) [Compound 339]
	< 10	10 to 100	CCC(OC)C(=O)N[C@@H](C(=O)N1CCN(C)CC1)[C@@H](C)c1ccc(NC(=O)[C@@H](NC(=O)c2ccnn2CC)C(C2CC2)C2CC2)c(F)c1 (single isomer, unassigned) [Compound 340]
	10 to 100	100 to 10000	CCn1nccc1C(=O)N[C@H](C(=O)Nc1ccc([C@H](C)[C@@H](NC(=O)C(C)Cc2cc(O)no2)C(=O)N2CCN(C)[C@H](C)C2)cc1F)C(C1CC1)C1CC1 (single isomer, unassigned) [Compound 343]
	< 10	10 to 100	CCn1nccc1C(=O)N[C@H](C(=O)Nc1ccc([C@H](C)[C@@H](NC(=O)C(C)Cc2cc(O)no2)C(=O)N2CCN(C)[C@H](C)C2)cc1F)C(C1CC1)C1CC1 (single isomer, unassigned) [Compound 344]
	100 to 10000	100 to 10000	CCC(=O)NC(C(=O)N1CCN(C)CC1)C(c1ccc(NC(=O)[C@@H](NC(=O)c2ccnn2CC)C(C2CC2)C2CC2)c(F)c1)C(F)(F)F (single isomer, unassigned) [Compound 350]
	100 to 10000	100 to 10000	CCn1nccc1C(=O)N[C@H](C(=O)Nc1ccc(C(C(NC(=O)[C@H](C)OC)C(=O)N2CCN(C)[C@H](C)C2)C(F)(F)F)cc1F)C(C1CC1)C1CC1 (single isomer, unassigned) [Compound 351]
C (7>C≥5)	100 to 10000		CCC(=O)NC(C(=O)N1CCN(C)CC1)C(c1ccc(NC(=O)[C@@H](NC(=O)c2ccnn2CC)C(C2CC2)C2CC2)c(F)c1)C(F)(F)F (single isomer, unassigned) [Compound 352]
	< 10	10 to 100	CCn1nccc1C(=O)N[C@H](C(=O)Nc1ccc(C(C(NC(=O)[C@H](C)OC)C(=O)N2CCN(C)[C@H](C)C2)C(F)(F)F)cc1F)C(C1CC1)C1CC1 (single isomer, unassigned) [Compound 353]
	100 to 10000	100 to 10000	CCn1nccc1C(=O)N[C@H](C(=O)Nc1ccc(C(C(NC(=O)[C@H](C)OC)C(=O)N2CCN(C)[C@H](C)C2)C(F)(F)F)cc1F)C(C1CC1)C1CC1 (single isomer, unassigned) [Compound 355]
C (7>C≥5)	10 to 100		CCC(=O)NC(C(=O)N1CCN(C)CC1)C(c1ccc(NC(=O)[C@@H](NC(=O)c2ccnn2CC)C(C2CC2)C2CC2)c(F)c1)C(F)(F)F (single isomer, unassigned) [Compound 356]
	100 to 10000	100 to 10000	CCn1nccc1C(=O)N[C@H](C(=O)Nc1ccc(C(C(NC(=O)[C@H](C)OC)C(=O)N2CCN(C)[C@H](C)C2)C(F)(F)F)cc1F)C(C1CC1)C1CC1 (single isomer, unassigned) [Compound 357]
	10 to 100	10 to 100	CCC(=O)N[C@@H](C(=O)N1CCN(C)CC1)[C@@H](C)c1ccc(NC(=O)[C@@H](NC(=O)c2ccnn2CC)C(C2CC2)C2CC2)c(F)c1 [Compound 200]
	10 to 100	10 to 100	CCC(=O)N[C@@H](C(=O)N1CCN(C)CC1)[C@@H](C)c1ccc(NC(=O)[C@@H](NC(=O)c2ccnn2CCF)C(C2CC2)C2CC2)c(F)c1 [Compound 216]
	< 10	10 to 100	CCn1nccc1C(=O)N[C@H](C(=O)Nc1ccc([C@H](C)[C@@H](NC(=O)[C@H](C)OC)C(=O)N2CCN(C)[C@H](C)C2)cc1F)C(C1CC1)C1CC1 [Compound 221]
	< 10	10 to 100	CCn1nccc1C(=O)N[C@H](C(=O)Nc1ccc([C@H](C)[C@@H](NC(=O)[C@H](C)OC)C(=O)N2CCN(C)CC2)cc1F)C(C1CC1)C1CC1 [Compound 222]

IL17AF HEK Blue pIC50 (IL-17A/F)	IC50 (IL-17A/A) [nM]	IC50 (IL-17A/F) [nM]	Structure (SMILES)
	< 10	100 to 10000	CCC(=O)N[C@@H](C(=O)N1CCN(C)[C@H](C)C1)[C@@H](C)c1ccc(NC(=O)[C@@H](NC(=O)c2nonc2C)C(C2CC2)C2CC2)c(F)c1 [Compound 246]
	10 to 100	100 to 10000	CCC(=O)N[C@@H](C(=O)N1CCC[C@H](N)C1)[C@@H](C)c1ccc(NC(=O)[C@@H](NC(=O)c2ccnn2CC)C(C2CC2)C2CC2)c(F)c1 [Compound 267]
	< 10	100 to 10000	CCOC(=O)N[C@@H](C)C(=O)N[C@@H](C(=O)N1CCN(C)CC1)[C@@H](C)c1ccc(NC(=O)[C@@H](NC(=O)C2(F)CC2)C(C2CC2)C2CC2)c(F)c1 [Compound 269]
	< 10	100 to 10000	C[C@@H](c1ccc(NC(=O)[C@@H](NC(=O)C2(F)CC2)C(C2CC2)C2CC2)c(F)c1)[C@@H](NC(=O)N(C)C1CC1)C(=O)N1CCN(C)CC1 [Compound 270]
	< 10	100 to 10000	C[C@@H]1CN(C(=O)[C@H](NC(=O)N(C)C2CC2)[C@@H](C)c2ccc(NC(=O)[C@@H](NC(=O)C3(F)CC3)C(C3CC3)C3CC3)c(F)c2)CCN1C [Compound 271]
	< 10	100 to 10000	CO[C@@H](C)C(=O)N[C@@H](C(=O)N1CCN(C)[C@H](C)C1)[C@@H](C)c1ccc(NC(=O)[C@@H](NC(=O)C2(F)CC2)C(C2CC2)C2CC2)c(F)c1 [Compound 273]
	< 10	100 to 10000	CCOC(=O)N1CC[C@H]1C(=O)N[C@@H](C(=O)N1CCN(C)[C@H](C)C1)[C@@H](C)c1ccc(NC(=O)[C@@H](NC(=O)C2(F)CC2)C(C2CC2)C2CC2)c(F)c1 [Compound 275]
	10 to 100	100 to 10000	COC(=O)N1CC[C@H]1C(=O)N[C@@H](C(=O)N1CCN(C)CC1)[C@@H](C)c1ccc(NC(=O)[C@@H](NC(=O)C2(F)CC2)C(C2CC2)C2CC2)c(F)c1 [Compound 277]
	< 10	100 to 10000	COC(=O)N1CC[C@H]1C(=O)N[C@@H](C(=O)N1CCN(C)[C@H](C)C1)[C@@H](C)c1ccc(NC(=O)[C@@H](NC(=O)C2(F)CC2)C(C2CC2)C2CC2)c(F)c1 [Compound 278]
	< 10	100 to 10000	CCOC(=O)N1CCC[C@H]1C(=O)N[C@@H](C(=O)N1CCN(C)[C@H](C)C1)[C@@H](C)c1ccc(NC(=O)[C@@H](NC(=O)C2(F)CC2)C(C2CC2)C2CC2)c(F)c1 [Compound 279]
	10 to 100	100 to 10000	COC(=O)N1CCC[C@H]1C(=O)N[C@@H](C(=O)N1CCN(C)CC1)[C@@H](C)c1ccc(NC(=O)[C@@H](NC(=O)C2(F)CC2)C(C2CC2)C2CC2)c(F)c1 [Compound 280]
	< 10	100 to 10000	COC(=O)N1CCC[C@H]1C(=O)N[C@@H](C(=O)N1CCN(C)[C@H](C)C1)[C@@H](C)c1ccc(NC(=O)[C@@H](NC(=O)C2(F)CC2)C(C2CC2)C2CC2)c(F)c1 [Compound 281]
	< 10	10 to 100	CCOC(=O)N[C@@H](C)C(=O)N[C@@H](C(=O)N1CCN(C)[C@H](C)C1)[C@@H](C)c1ccc(NC(=O)[C@@H](NC(=O)C2(F)CC2)C(C2CC2)C2CC2)c(F)c1 [Compound 282]
	< 10	10 to 100	CCn1nccc1C(=O)N[C@H](C(=O)Nc1ccc([C@H](C)[C@@H](NC(=O)COC)C(=O)N2CCN(C)C[C@@H]2C)cc1F)C(C1CC1)C1CC1 [Compound 283]
	< 10	10 to 100	CCn1nccc1C(=O)N[C@H](C(=O)Nc1ccc([C@H](C)[C@@H](NC(=O)[C@H](C)OC)C(=O)N2CCN(C)C[C@@H]2C)cc1F)C(C1CC1)C1CC1 [Compound 284]
	10 to 100	100 to 10000	CO[C@@H](C)C(=O)N[C@@H](C(=O)N1CCN(C)C[C@@H]1C)[C@@H](C)c1ccc(NC(=O)[C@@H](NC(=O)C2(F)CC2)C(C2CC2)C2CC2)c(F)c1 [Compound 285]
	< 10	10 to 100	CCn1nccc1C(=O)N[C@H](C(=O)Nc1ccc([C@H](C)[C@@H](NC(=O)COC)C(=O)N2C[C@@H](C)N(C)C[C@H]2C)cc1F)C(C1CC1)C1CC1 [Compound 286]
